Test results reported in patent US11395821B2, “Treatment of EGFR-driven cancer with fewer side effects” (G1 Therapeutics, Inc., priority 2017, dated 2022).
Read-outs that look alike come from different tables or passages of the source.

How the values were obtained:
[1] = cited from earlier work
[2] = cited from earlier work; remark: listed apart in the source
[3] = cited from earlier work; remark: listed apart in the source
[4] = cited from earlier work; for Grade ≥3 decrease in neutrophil count: laboratory findings
[5] = human, in vivo; cited from earlier work
[6] = system: EGFR^ex19del/T790M PDX NSCLC tumor fragments (TM00219, Jackson Labs); assay: Example 4: Compound IV +/- osimertinib in EGFR ex19del/T790M PDX model; format: in vivo, NSG mice; conditions: once daily oral gavage 28 days; Compound IV 100 mg/kg or osimertinib 2.5 mg/kg alone
Text: (§1) The x-axis is days from initiation measured in time and the y-axis is mean tumor volume measured in mm^3.
The x-axis is days from initiation measured in time and the y-axis is median tumor volume measured in mm^3.
After 28 days tumors continued to be measured until they reached tumor burden (>2000 mm^3).

[7] = system: EGFR^ex20ins PDX NSCLC tumor fragments (LU0387, CrownBio); assay: Example 5: Compound IV +/- osimertinib in EGFR ex20ins PDX model; format: in vivo, BALB/c nude mice; conditions: once daily oral gavage, 17 days; Compound IV 100 mg/kg or osimertinib 10 mg/kg alone
Text: as §1
Tumors continued to be measured until they reached tumor burden (>3000 mm3).

[8] = in vivo; cited from earlier work
[9] = cited from earlier work; remark: listed apart in the source
[10] = cited from earlier work; remark: listed apart in the source
[11] = all grades, GILOTRIF n=229, pemetrexed/cisplatin n=111

CN(C)C/C=C/C(=O)Nc1cc2c(Nc3ccc(F)c(Cl)c3)ncnc2cc1O[C@H]1CCOC1 [GILOTRIF, afatinib]
fatal liver test abnormalities ([1]; 3865 patients): 0.18%
liver test abnormalities ([1]; 3865 patients): 10.1%
diarrhea [1, 11]: 96%
dry skin [1, 11]: 31%
paronychia [1, 11]: 58%
pruritus [1, 11]: 21%
rash/acneiform dermatitis [1, 11]: 90%
stomatitis [1, 11]: 71%
decreased appetite ([1]; human, in vivo): 29%
fatal pneumonia ([1]; human, in vivo): 0.43%
fatal pulmonary toxicity/interstitial lung disease (ILD)-like adverse reactions ([1]; human, in vivo): 1.3%
fatal sepsis ([1]; human, in vivo): 0.43%
nausea ([1]; human, in vivo): 25%
serious adverse reaction: diarrhea ([1]; human, in vivo): 6.6%
serious adverse reaction: dyspnea ([1]; human, in vivo): 1.7%
serious adverse reaction: fatigue ([1]; human, in vivo): 1.7%
serious adverse reaction: hypokalemia ([1]; human, in vivo): 1.7%
serious adverse reaction: vomiting ([1]; human, in vivo): 4.8%
serious adverse reactions ([1]; human, in vivo): 29%
ventricular dysfunction (all <Grade 3) ([1]; human, in vivo): 2.2%
vomiting ([1]; human, in vivo): 23%

COc1cc2ncnc(Nc3ccc(F)c(Cl)c3)c2cc1OCCCN1CCOCC1 [IRESSA, gefitinib]
skin reactions ([2]; across NSCLC): 47%
incidence of fatal hepatotoxicity ([2]; human, in vivo): 0.04%

C#Cc1cccc(Nc2ncnc3cc(OCCOC)c(OCCOC)cc23)c1.Cl [TARCEVA, erlotinib]
overall incidence of ILD ([3]; approximately 32,000 patients, all studies): approximately 1.1%
discontinued therapy due to adverse reactions ([3]; human, in vivo): 14.3%
dose interruptions or reductions due to adverse reactions ([3]; human, in vivo): 37%
dose modification due to asthenia ([3]; human, in vivo): 3.6%
dose modification due to diarrhea ([3]; human, in vivo): 10%
dose modification due to rash ([3]; human, in vivo): 13%
liver function test abnormalities (ALT, AST, bilirubin) ([3]; human, in vivo): Grade 2 and Grade 3 liver function test abnormalities
median time to onset of diarrhea ([3]; human, in vivo): 32 days
median time to onset of rash ([3]; human, in vivo): 15 days
most frequent Grade 3-4 adverse reactions ([3]; human, in vivo): rash and diarrhea
most frequent adverse reactions: diarrhea, asthenia, rash, cough, dyspnea, decreased appetite ([3]; human, in vivo): ≥ 30%
median onset of ILD symptoms after initiating therapy ([3]; patients with ILD): 39 days
onset of ILD symptoms after initiating therapy (span) ([3]; patients with ILD): between 5 days to more than 9 months

CCN1CCN(Cc2ccc(Nc3ncc(F)c(-c4cc(F)c5nc(C)n(C(C)C)c5c4)n3)nc2)CC1 [abemaciclib]
Grade ≥3 decrease in neutrophil count ([4]; MONARCH 1): 27%
Grade 3 diarrhea ([4]; alone, MONARCH 1): 20%
diarrhea ([4]; alone, MONARCH 1): 90%
neutropenia ([4]; alone, MONARCH 1): 37%
alanine aminotransferase (ALT) increased ([4]; human, in vivo): 41%
aspartate aminotransferase (AST) increased ([4]; human, in vivo): 37%
dose reductions due to diarrhea of any grade ([4]; human, in vivo): 19%
dose reductions due to neutropenia of any grade ([4]; human, in vivo): 10%
permanent treatment discontinuation due to an adverse event ([4]; human, in vivo): 9%
Grade 3 diarrhea ([4]; plus fulvestrant, MONARCH 2): 13%
diarrhea ([4]; plus fulvestrant, MONARCH 2): 86%
neutropenia ([4]; plus fulvestrant, MONARCH 2): 46%
Grade ≥3 decrease in neutrophil count ([4]; plus fulvestrant, MONARCH 2): 32%
dose reductions due to an adverse reaction ([4]; plus fulvestrant): 43%

C=CC(=O)Nc1cc(Nc2nccc(-c3cn(C)c4ccccc34)n2)c(OC)cc1N(C)CCN(C)C [osimertinib, reference compound]
nail toxicity [5]: 22%
patients experiencing Grade 3 neutropenia [5]: up to 2.2%
tumor growth vs vehicle, single agent [6]: modest tumor growth inhibition
tumor growth vs vehicle, single agent [7]: did not cause an effect

CC(=O)c1c(C)c2cnc(Nc3ccc(N4CCNCC4)cn3)nc2n(C2CCCC2)c1=O [palbociclib]
T½ [8]: roughly 27 hours
incidence of neutropenia ([9]; Study 1 (PALOMA-2)): 80%
incidence of neutropenia ([9]; Study 2 (PALOMA-3)): 83%
complete drug discontinuation ([9]; human, in vivo): 8%
median duration of Grade ≥3 neutropenia ([9]; human, in vivo): 7 days
median time to first episode of any grade neutropenia ([9]; human, in vivo): 15 days
patients requiring a dose interruption ([9]; human, in vivo): 71%
patients requiring a dose reduction ([9]; human, in vivo): 36%
Grade ≥3 decrease in neutrophil counts ([9]; patients in PALOMA-2 and PALOMA-3): 66%
increased alanine transferase ([9]; patients treated): 40%
increased aspartate aminotransferase (AST) ([9]; patients treated): 48%

CN(C)C(=O)c1cc2cnc(Nc3ccc(N4CCNCC4)cn3)nc2n1C1CCCC1 [ribociclib]
Grade 3 or 4 increases in ALT ([10]; KISQALI treatment arms): 10%
Grade 3 or 4 increases in AST ([10]; KISQALI treatment arms): 7%
patients with at least one average QTcF interval of more than 480 msec after baseline ([10]; MONALEESA-2 study): 3.3%
alopecia ([10]; adverse reaction): 33%
back pain ([10]; adverse reaction): 20%
constipation ([10]; adverse reaction): 25%
diarrhea ([10]; adverse reaction): 35%
fatigue ([10]; adverse reaction): 37%
headache ([10]; adverse reaction): 22%
leukopenia ([10]; adverse reaction): 33%
neutropenia ([10]; adverse reaction): 75%
vomiting ([10]; adverse reaction): 29%
Grade 3/4 decrease in neutrophil count ([10]; based on laboratory findings): 60%
treatment discontinuation due to increased ALT ([10]; first mention): 4%
QT interval ([10]; human, in vivo): prolong the QT interval in a concentration-dependent manner
dose reductions due to adverse reactions ([10]; human, in vivo): 45%
permanent discontinuations due to ARs ([10]; human, in vivo): 7%
treatment discontinuation due to vomiting ([10]; human, in vivo): 2%
treatment discontinuation due to increased ALT ([10]; second mention): 3%
